In patent publication US7371734B2, “Oligonucleotide compositions and their use for the modulation of immune responses” (Bioniche Life Sciences Inc., priority 2002, dated 2008):
Marks after values point to notes of the source that are not given here.

Legend:
Format in all cases: cell-based
[1] = system: Human dendritic cells; assay: CD40 levels at the DC cell surface (flow cytometry); conditions: 100 μg, 48 hours
Description: (§1) Human dendritic cells were obtained from Clonetics (San Diego, Calif., USA) and were cultured in the medium recommended by Clonetics. DC were obtained from three different individuals (see Table 1). Major histocompatability typing was performed on each of these individuals and several of the HLA (human leukocyte antigens) types are shown.
DC from individuals B and C were seeded in 1.0 ml at 1.0×10^5 cells/ml in 6-well flat-bottomed tissue culture plates for 48 hours with 100 μg of 6 base N1A, N1B, N2A, N2B, N3A, N3B, N4A, N4B, N5A, N5B, N6A, N6B, N7A or N7B polynucleotides. The level of CD40 at the cell surface was determined after 48 hours of incubation by flow cytometry (FACSCalibur system) using a FITC-conjugated monoclonal antibody directed to CD40 and analyzed by CELLQuest Pro (all from Becton Dickinson). Results are expressed as the percentage of CD40^hi DC following treatment. The term “CD40^hi” refers to a population of cells identified by flow cytometry as having higher than baseline expression of CD40.

[2] = system: Human dendritic cells; assay: Endocytosis of FITC-dextran by DC; conditions: DC from individual B, 100 μg, 24 hours, untreated control = 100
Description: as §1
DC from individual B were seeded in 1.0 ml at 1.0×10^5 cells/ml in 6-well flat-bottomed tissue culture plates for 24 hours with 1 mg/ml of FITC-dextran (20 kDa; Sigma-Aldrich) in the absence or presence of 100 μg of 6 base N2A, N2B, N3A, N3B, N5A, N5B, and N6B polynucleotides at 4° C. (control cell surface binding of FITC-dextran) and 37° C. (to assess endocytosis). Cells were washed three times with ice-cold phosphate buffered saline and analyzed by flow cytometry using CELLQuest Pro. Results are expressed as relative endocytic rate (normalized Δ Mean Fluorescence Value (Δ MFV)). Δ MFV=MFV of DC exposed to FITC-dextran at 37° C.−MFV of DC exposed to FITC-dextran at 4° C. Δ MFV=(ΔMFVsequence/ΔMFVcontrol)×100.

[3] = system: Human dendritic cells; assay: CD86 levels at the DC cell surface (flow cytometry); conditions: 100 μg, 48 hours
Description: as §1
(§2) DC from individuals B and C were seeded in 1.0 ml at 1.0×10^5 cells/ml in 6-well flat-bottomed tissue culture plates for 48 hours with 100 μg of 6 base N1A, N1B, N2A, N2B, N3A, N3B, N4A, N4B, N5A, N5B, N6A, N6B, N7A or N7B polynucleotides. The level of CD86 at the cell surface was determined after 48 hours of incubation by flow cytometry using a PE-conjugated monoclonal antibody directed to CD86 (Serotec) and analyzed by CELLQuest Pro. Results are expressed as the percentage of CD86^hi DC following treatment.

[4] = system: Human dendritic cells; assay: MHC-II levels at the DC cell surface (flow cytometry); conditions: DC from individual B; 100 μg, 48 hours
Description: as §1
as §2, with “individual” for “individuals”, “B” for “B and C”, “N3B,” for “N3B, N4A, N4B,”, “MHC II” for “CD86”, “FITC-conjugated” for “PE-conjugated”, “MHC II^hi” for “CD86^hi”

[5] = system: Human dendritic cells; assay: CD80 levels at the DC cell surface (flow cytometry); conditions: 100 μg, 48 hours
Description: as §1
as §2, with “CD80” for “CD86”, “FITC-conjugated” for “PE-conjugated”, “CD80 (Serotec, Oxford, U.K.)” for “CD86 (Serotec)”, “CELLQuest.” for “CELLQuest Pro.”, “CD80^hi” for “CD86^hi”

[6] = system: Human dendritic cells; assay: Induction of IL-12 production by DC (ELISA); conditions: 100 μg, 48 hours
Description: as §1
DC were seeded in 1.0 ml at 1.0×10^5 cells/ml in 6-well flat-bottomed tissue culture plates for 48 hours with 100 μg of 6 base N1A, N1B, N2A, N2B, N3A, N3B, N4A, N4B, N5A, N5B, N6A, N6B, N7A or N7B polynucleotides. Production of IL-12 was determined in 100 μl of culture supernatant using a commercial ELISA (BioSource) after 48 hours of incubation. Results are expressed as the “fold” (x) increase in IL-12 production by treated DC compared to control cells.

[7] = system: Human dendritic cells; assay: Induction of IL-1beta production by DC (ELISA); conditions: 100 μg, 48 hours
Description: as §1
DC were seeded in 1.0 ml at 1.0×10^5 cells/ml in 6-well flat-bottomed tissue culture plates for 48 hours with 100 μg of 6 base N1A, N1B, N2A, N2B, N3A, N3B, N4A, N4B, N5A, N5B, N6A, N6B, N7A or N7B polynucleotides. Production of IL-1beta was determined in 100 μl of culture supernatant using a commercial ELISA (BioSource, Camarillo, Calif., USA) after 48 hours of incubation. Results are expressed as the “fold” (x) increase in IL-1beta production by treated DC compared to control cells.

[8] = system: Human dendritic cells; assay: Increase in cell size and granularity of DC (flow cytometry); conditions: 100 μg polynucleotide, 48 hours
Description: as §1
DC were seeded in 1.0 ml at 1.0×10^5 cells/ml in 6-well flat-bottomed tissue culture plates for 48 hours with 100 μg of 6 base N1A, N1B, N2A, N2B, N3A, N3B, N4A, N4B, N5A, N5B, N6A, N6B, N7A or N7B polynucleotides. Cell size (FCS: forward side scatter) and granularity (S SC: side light scatter) were determined by flow cytometry using a FACSCalibur and analyzed using the CELLQuest Pro software (both from Becton-Dickinson, San Diego, Calif., USA). Percentage of DC showing a FCS>500 units and a SSC>400 units have been determined after treatment with 3-OH, 5-OH polynucleotides for DC isolated from three different individuals.

[9] = system: Human dendritic cells; assay: Induction of IFN-gamma production by DC (ELISA); conditions: 100 μg, 48 hours
Description: as §1
DC were seeded in 1.0 ml at 1.0×10^5 cells/ml in 6-well flat-bottomed tissue culture plates for 48 hours with 100 μg of6 base N1A, N1B, N2A, N2B, N3A, N3B, N4A, N4B, N5A, N5B, N6A, N6B, N7A or N7B polynucleotides. Production of IFN-gamma was determined in 100 μl of culture supernatant using a commercial ELISA (BioSource) after 48 hours of incubation. Results are expressed as the “fold” (x) increase in IFN-gamma production by treated DC compared to control cells.

Substance	The percentage of CD40^hi DC following treatment ([1]; DC from individual B)	The percentage of CD40^hi DC following treatment ([1]; DC from individual C)	Relative endocytic rate (normalized Δ MFV) [2]	The percentage of CD86^hi DC following treatment ([3]; DC from individual B)	The percentage of CD86^hi DC following treatment ([3]; DC from individual C)	The percentage of MHC-II^hi DC following treatment [4]	The percentage of CD80^hi DC following treatment ([5]; DC from individual B)	The percentage of CD80^hi DC following treatment ([5]; DC from individual C) [%]	IL-12 production by DC (fold increase compared to untreated DC) ([6]; DC isolated from individual A) [fold]	IL-12 production by DC (fold increase compared to untreated DC) ([6]; DC isolated from individual B) [fold]	IL-12 production by DC (fold increase compared to untreated DC) ([6]; DC isolated from individual C) [fold]	IL-1beta production by DC (fold increase compared to untreated DC) ([7]; DC isolated from individual A) [fold]	IL-1beta production by DC (fold increase compared to untreated DC) ([7]; DC isolated from individual B) [fold]	IL-1beta production by DC (fold increase compared to untreated DC) ([7]; DC isolated from individual C) [fold]	Percentage of DC showing a FCS > 500 units and a SSC > 400 units ([8]; DC isolated from individual A) [%]	Percentage of DC showing a FCS > 500 units and a SSC > 400 units ([8]; DC isolated from individual B) [%]	Percentage of DC showing a FCS > 500 units and a SSC > 400 units ([8]; DC isolated from individual C) [%]	IFN-gamma production by DC (fold increase compared to untreated DC) ([9]; DC isolated from individual A) [fold]	IFN-gamma production by DC (fold increase compared to untreated DC) ([9]; DC isolated from individual B) [fold]	IFN-gamma production by DC (fold increase compared to untreated DC) ([9]; DC isolated from individual C) [fold]
5′GGTGGG3′ [N2A]	27** %	17%	334	16%	26%	42** %	25** %	18	7.9	6.8	1.6	1.0	1.0	1.0	6	14	21	1.0	1.1	1.0
5′GGTGGG3′ [N2B]	22%	37** %	148	31** %	53** %	30%	7%	8	1.3	6.0	2.5	1.2	1.4	1.0	42	38	50	1.2	1.2	1.0
